From PubChem BioAssay AID328 (DTP/NCI, 2004)
Several values for one entry are separate records, joined by “and”; a condition that tells them apart may be missing. Identical values can stand only once. Toxic doses and inconclusive results are not listed.

Test system: BDF1 mice, P388 leukemia ip, median survival T/C
Assay: NCI In Vivo Anticancer Drug Screen. Data for tumor model P388 Leukemia (intraperitoneal) in B6D2F1 (BDF1) mice
Details: endpoint: median survival time, vehicle: saline, higher = longer survival
Procedure, shortened: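 Survival ratio, drug arm over vehicle arm, in mice with a transplanted tumour.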

Nc1ncnc2c1ccn2C1OC(CO)C(O)C1O (stereo not drawn)
T/C (dose: 0.19 mg/kg/injection, schedule: Q03DX005 (ip)): 100 % of control | T/C (dose: 0.25 mg/kg/injection, schedule: Q02DX005 (ip)): 108 % of control | T/C (dose: 0.25 mg/kg/injection, schedule: Q#A X002 (ip)): 108 % of control | T/C (dose: 0.31 mg/kg/injection, schedule: Q01DX010 (ip)): 122 % of control | T/C (dose: 0.38 mg/kg/injection, schedule: Q03DX005 (ip)): 104 % of control | T/C (dose: 0.5 mg/kg/injection, schedule: Q01DX006 (iv)): 95 % of control | T/C (dose: 0.5 mg/kg/injection, schedule: Q01DX010 (oral)): 109 % of control | T/C (dose: 0.5 mg/kg/injection, schedule: Q02DX004 (im)): 104 % of control | T/C (dose: 0.5 mg/kg/injection, schedule: Q02DX005 (ip)): 112 % of control | T/C (dose: 0.5 mg/kg/injection, schedule: Q04DX003 (ip)): 112 % of control | T/C (dose: 0.5 mg/kg/injection, schedule: Q07DX002 (ip)): 112 % of control | T/C (dose: 0.5 mg/kg/injection, schedule: Q#A X002 (ip)): 112 % of control | T/C (dose: 0.75 mg/kg/injection, schedule: Q03DX005 (ip)): 118 % of control | T/C (dose: 1.0 mg/kg/injection, schedule: Q01DX001 (ip)): 108 % of control | T/C (dose: 1.0 mg/kg/injection, schedule: Q01DX006 (iv)): 95 % of control | T/C (dose: 1.0 mg/kg/injection, schedule: Q01DX010 (ip)): 150 % of control | T/C (dose: 1.0 mg/kg/injection, schedule: Q01DX010 (oral)): 100 % of control | T/C (dose: 1.0 mg/kg/injection, schedule: Q01DX010 (sc)): 91 % of control and 104 % of control | T/C (dose: 1.0 mg/kg/injection, schedule: Q02DX004 (im)): 91 % of control | T/C (dose: 1.0 mg/kg/injection, schedule: Q04DX003 (ip)): 116 % of control | T/C (dose: 1.0 mg/kg/injection, schedule: Q07DX002 (ip)): 116 % of control | T/C (dose: 1.5 mg/kg/injection, schedule: Q03DX005 (ip)): 154 % of control | T/C (dose: 1.5 mg/kg/injection, schedule: Q03DX010 (ip)): 172 % of control | T/C (dose: 1.75 mg/kg/injection, schedule: Q07DX002 (ip)): 150 % of control | T/C (dose: 2.0 mg/kg/injection, schedule: Q01DX001 (ip)): 116 % of control | T/C (dose: 2.0 mg/kg/injection, schedule: Q01DX006 (iv)): 91 % of control | T/C (dose: 2.0 mg/kg/injection, schedule: Q01DX010 (im)): 104 % of control | T/C (dose: 2.0 mg/kg/injection, schedule: Q01DX010 (ip)): 108 % of control | T/C (dose: 2.0 mg/kg/injection, schedule: Q01DX010 (oral)): 100 % of control | T/C (dose: 2.0 mg/kg/injection, schedule: Q01DX010 (sc)): 100 % of control and 113 % of control | T/C (dose: 2.0 mg/kg/injection, schedule: Q02DX004 (im)): 100 % of control | T/C (dose: 2.0 mg/kg/injection, schedule: Q04DX003 (ip)): 120 % of control | T/C (dose: 2.0 mg/kg/injection, schedule: Q07DX002 (ip)): 116 % of control | T/C (dose: 2.0 mg/kg/injection, schedule: Q#A X002 (ip)): 95 % of control | T/C (dose: 3.0 mg/kg/injection, schedule: Q03DX010 (ip)): 159 % of control | T/C (dose: 4.0 mg/kg/injection, schedule: Q01DX010 (im)): 104 % of control | T/C (dose: 4.0 mg/kg/injection, schedule: Q01DX010 (sc)): 112 % of control and 113 % of control | T/C (dose: 4.0 mg/kg/injection, schedule: Q02DX004 (im)): 100 % of control | T/C (dose: 4.0 mg/kg/injection, schedule: Q04DX003 (ip)): 100 % of control | T/C (dose: 4.0 mg/kg/injection, schedule: Q07DX002 (ip)): 116 % of control | T/C (dose: 7.0 mg/kg/injection, schedule: Q01DX001 (ip)): 150 % of control | T/C (dose: 8.0 mg/kg/injection, schedule: Q01DX001 (oral)): 92 % of control | T/C (dose: 8.0 mg/kg/injection, schedule: Q01DX010 (im)): 150 % of control | T/C (dose: 8.0 mg/kg/injection, schedule: Q01DX010 (oral)): 91 % of control | T/C (dose: 8.0 mg/kg/injection, schedule: Q01DX010 (sc)): 118 % of control | T/C (dose: 16.0 mg/kg/injection, schedule: Q01DX001 (oral)): 92 % of control | T/C (dose: 28.0 mg/kg/injection, schedule: Q01DX001 (ip)): 118 % of control | T/C (dose: 31.5 mg/kg/injection, schedule: Q#A X020 (ip)): 104 % of control | T/C (dose: 62.5 mg/kg/injection, schedule: Q#A X020 (ip)): 109 % of control | T/C (dose: 125.0 mg/kg/injection, schedule: Q#A X020 (ip)): 118 % of control | T/C (dose: 63.0 micrograms/kg/injection, schedule: Q01DX010 (ip)): 109 % of control | T/C (dose: 125.0 micrograms/kg/injection, schedule: Q01DX010 (ip)): 104 % of control | T/C (dose: 250.0 micrograms/kg/injection, schedule: Q01DX010 (ip)): 104 % of control
